The structures appear in SMILES notation. Calls of active or inactive are those of the source. No cut-off for these calls is given here.

What is called IC50 is the concentration needed to halve the response being measured. A higher IC50 goes with a need for much substance. The term Kd denotes a measure of binding affinity in units of concentration. The low end stands for tighter binding, the high end for weaker binding.

Data set [1] can be described thus: Antiproliferative activity against human K562/4 cells after 72 hrs by MTT assay. The class given is functional, cell-based. The following applies: K562/4, 72 h.
Data set [2] has as its system L1210. As to the kind of experiment: Antiproliferative activity against mouse L1210 cells after 72 hrs by MTT assay. The format is functional, cell-based. To be noted: L1210, 72 h.
Data set [3] is described as follows: Selectivity index, ratio of IC50 for HMEC1 cells to IC50 for mouse L1210 cells. The following applies: HMEC1 cells and L1210 cells, read-out: Ratio IC50. The class given is toxicity.
The nature of data set [4]: Selectivity index, ratio of IC50 for HMEC1 cells to IC50 for human K562 cells. The format is toxicity. The following applies: HMEC1 cells and K562 cells, read-out: Ratio IC50.
The nature of data set [5]: Selectivity index, ratio of IC50 for HMEC1 cells to IC50 for human K562/4 cells. The following applies: HMEC1 cells and K562/4 cells, read-out: Ratio IC50. The format is toxicity.
The test system of data set [6] is HCT-116. As to the kind of experiment: Antiproliferative activity against human HCT116 cells after 72 hrs by MTT assay. The format is functional, cell-based. The following applies: HCT-116, 72 h.
For data set [7], the target named is T1, DNA topoisomerase 1 (Homo sapiens) (UniProt P11387).
T1 sequence (whole entry): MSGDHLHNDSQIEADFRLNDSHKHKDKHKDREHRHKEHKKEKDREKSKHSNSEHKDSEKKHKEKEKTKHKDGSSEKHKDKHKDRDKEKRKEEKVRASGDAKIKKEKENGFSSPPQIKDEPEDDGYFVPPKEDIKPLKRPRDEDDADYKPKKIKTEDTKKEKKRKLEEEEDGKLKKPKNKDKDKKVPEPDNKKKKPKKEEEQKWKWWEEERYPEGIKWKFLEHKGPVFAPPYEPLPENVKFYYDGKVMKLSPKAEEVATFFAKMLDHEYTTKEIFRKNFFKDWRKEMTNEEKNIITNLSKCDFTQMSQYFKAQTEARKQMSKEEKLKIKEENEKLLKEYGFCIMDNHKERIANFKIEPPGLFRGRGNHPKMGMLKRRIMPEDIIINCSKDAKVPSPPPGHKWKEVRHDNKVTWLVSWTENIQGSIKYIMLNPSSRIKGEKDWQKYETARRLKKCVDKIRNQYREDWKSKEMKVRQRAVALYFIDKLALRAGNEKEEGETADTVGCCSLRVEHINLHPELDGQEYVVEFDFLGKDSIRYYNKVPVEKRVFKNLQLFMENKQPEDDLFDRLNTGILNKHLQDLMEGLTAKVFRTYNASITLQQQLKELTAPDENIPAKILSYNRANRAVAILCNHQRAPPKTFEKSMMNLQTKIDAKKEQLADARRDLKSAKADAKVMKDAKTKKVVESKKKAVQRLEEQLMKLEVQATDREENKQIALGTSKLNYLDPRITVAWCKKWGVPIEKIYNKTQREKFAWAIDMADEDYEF
As to the kind of experiment: Inhibition of human DNA topoisomerase 1 assessed as decrease in relaxation of pBR322 at <= 20 uM after 30 to 40 mins by agarose gel electrophoresis.

For data set [8], the system named is HMEC-1. Briefly: Antiproliferative activity against HMEC1 cells after 72 hrs by MTT assay. The format is cell-based. To be noted: Homo sapiens, HMEC-1, 72 h.
The nature of data set [9]: Selectivity index, ratio of IC50 for HMEC1 cells to IC50 for human HeLa cells. The format is toxicity. To be noted: HMEC1 cells and HeLa cells, read-out: Ratio IC50.
Data set [10] concerns CCRF-CEM. As to the kind of experiment: Antiproliferative activity against human CEM cells after 72 hrs by MTT assay. The format is functional, cell-based. For orientation: Tetrazolium assays rely on reduction of a dye to a coloured formazan, in cell work by metabolically active cells.
The subject of data set [11] is HCT-116. Briefly: Antiproliferative activity against p53 deficient human HCT116 cells after 72 hrs by MTT assay. The format is functional, cell-based. To be noted: HCT-116, 72 h.
Data set [12] can be described thus: Selectivity index, ratio of IC50 for HMEC1 cells to IC50 for human CEM cells. The class given is toxicity. To be noted: HMEC1 cells and CEM cells, read-out: Ratio IC50.
The nature of data set [13]: Selectivity index, ratio of IC50 for HMEC1 cells to IC50 for p53 deficient human HCT116 cells. The class given is toxicity. The following applies: HMEC1 cells and p53 deficient HCT116 cells, read-out: Ratio IC50.
The subject of data set [14] is K562. Briefly: Antiproliferative activity against human K562 cells after 72 hrs by MTT assay. To be noted: K562, 72 h. The class given is functional, cell-based.
Data set [15] is described as follows: Selectivity index, ratio of IC50 for HMEC1 cells to IC50 for human HCT116 cells. The following applies: HMEC1 cells and HCT116 cells, read-out: Ratio IC50. The class given is toxicity.
Data set [16] deals with HeLa. Briefly: Antiproliferative activity against human HeLa cells after 72 hrs by MTT assay. The format is functional, cell-based.
In data set [17] the test system is Calf thymus DNA. As to the kind of experiment: Binding affinity to calf thymus DNA by visible spectroscopic method. The following applies: Bos taurus. The class given is nucleic-acid assay.
Data set [18] relates to T-24. Briefly: Induction of apoptosis n human T24 cells at 1 uM after 24 hrs by annexin V-FITC/propidium iodide staining-based flow cytometric method. The format is functional, cell-based. Background: Flow cytometry measures light scatter and fluorescence of single cells or particles in a stream.
Data set [19] deals with Calf thymus DNA. As to the kind of experiment: Binding affinity to calf thymus double stranded DNA at 10 uM by fluorescence spectrophotometer. The class given is nucleic-acid assay. To be noted: Bos taurus.
The subject of data set [20] is T-24. Briefly: Induction of apoptosis n human T24 cells assessed as downregulation of Bcl-2 levels at 0.5 to 1 uM after 18 hrs by Western blot method. The class given is functional, cell-based. A general note: Immunoblotting shows a protein as a band on a membrane.
Data set [21] concerns T-24. Briefly: Upregulation of total p53 levels in human T24 cells at 0.5 to 1 uM after 18 hrs by Western blot method. The format is cell-based. To be noted: t-24, 18 h.
The test system of data set [22] is T-24. Briefly: Induction of reactive oxygen species generation in human T24 cells at 1 uM after 30 mins by H2DCFDA dye-based flow cytometric method. The format is functional, cell-based.
Data set [23] relates to Calf thymus DNA. Briefly: Binding affinity to calf thymus DNA. The format is nucleic-acid assay. The following applies: Bos taurus.
Data set [24] relates to T-24. Briefly: Induction of apoptosis n human T24 cells assessed as PARP cleavage at 0.5 to 1 uM after 18 hrs by Western blot method. The format is functional, cell-based.
Data set [25] relates to T-24. As to the kind of experiment: Growth inhibition of human T24 cells after 72 hrs by cell impedance method. The class given is functional, cell-based. The following applies: T-24, 72 h.
The subject of data set [26] is T-24. As to the kind of experiment: Induction of apoptosis n human T24 cells assessed as upregulation of Bak levels at 0.5 to 1 uM after 18 hrs by Western blot method. The format is functional, cell-based.
The target of data set [27] is T1, DNA topoisomerase 1 (Homo sapiens). As to the kind of experiment: Inhibition of human DNA topoisomerase 1 assessed as decrease in relaxation of pBR322 at 20 uM after 30 to 40 mins by agarose gel electrophoresis.
In data set [28] the test system is Calf thymus DNA. As to the kind of experiment: Binding affinity to calf thymus double stranded DNA by Benesi-Hildebrand plot analysis. The class given is nucleic-acid assay, Bos taurus.
Data set [29] deals with T-24. As to the kind of experiment: Induction of apoptosis n human T24 cells assessed as upregulation of p53 levels at 0.5 to 1 uM after 18 hrs by Western blot method. The format is functional, cell-based.
For data set [30], the target named is T1, DNA topoisomerase 1 (Homo sapiens). Briefly: Inhibition of human DNA topoisomerase 1 assessed as decrease in relaxation of pBR322 at 5 to 20 uM after 30 to 40 mins by agarose gel electrophoresis.
Data set [31] has as its system T-24. As to the kind of experiment: Induction of apoptosis n human T24 cells assessed as caspase-3 cleavage at 0.5 to 1 uM after 18 hrs by Western blot method. The format is functional, cell-based.
The nature of data set [32]: Resistance index, ratio of IC50 for human K562/4 cells to IC50 for human K562 cells. The class given is functional.

With `Cc1cc(O)c2c3c4c(cc(O)c13)C(C)(C)C(=O)c1c(O)c(CN(CC(=O)O)CC(=O)O)c(O)c(c1-4)C2=O`, the IC50 amounted to 3.1 µM in [1]; 31 µM in [2]; 0.2 µM in data set [6]; 34.3 µM in data set [8]; 9.7 µM in [10]; 0.6 µM in data set [11]. The values for the IC50 in [14] and in data set [16] were 5.5 µM and 6.5 µM, respectively. Further, the selectivity ratio in data set [3], in [4], in data set [5], in data set [9], in [12] and in [13] was 2 to 50 in each case. Also, the selectivity ratio in data set [15] was 2 to 50. The “Topoisomerase 1 inhibition (active/inactive)” value in data set [7] is “Active”.
In the case of `COc1cccc2c1C(=O)c1c(O)c3c(c(O)c1C2=O)C[C@@](O)(C(=O)CO)C[C@@H]3O[C@H]1C[C@H](N)[C@H](O)[C@H](C)O1`, the Kb in data set [17] worked out at 2 ×10⁶ /M.
Turning to `Cc1cc(O)c2c3c4c(cc(O)c13)C(C)(C)C(=O)c1c(O)cc(O)c(c1-4)C2=O` [HELIOMYCIN], the IC50 in [1] was 0.4 µM; in data set [2], 0.7 µM; in data set [6] it was 0.3 µM; in data set [8], 0.5 µM; in [10], 0.5 µM; in [11], 0.1 µM. Also, the IC50 in [25] was found to be 26 µM; in data set [14] it was 0.3 µM; in [16] it was 0.1 µM. Also, the outcome in data set [18], in data set [19], in [20], in [22], in [24] and in data set [26] was inactive. In addition, in data set [21], the Activity entry is “Toxic”. The same compound came in with a Kb in data set [23] of 1.1 ×10⁴ /M. Moreover, in data set [27], the inhibition result was “inactive”.
On to `Cc1cc(O)c2c3c4c(cc(O)c13)C(C)(C)C(=O)c1c(O)c(CN3CCC(N)CC3)c(O)c(c1-4)C2=O`, for which the IC50 worked out at 4.1 µM in data set [1]; 0.8 µM in data set [2]; 1.2 µM in data set [6]; 2.3 µM in data set [10]; 0.7 µM in [11]; 4.4 µM in [25]. Further, the IC50 was 0.6 µM in data set [14] and 2.6 µM in data set [16]. The compound also registered a Kd in data set [28] of 8.1 µM. The compound also registered a Kb in data set [28] (Bos taurus) of 1.2 ×10⁵ /M. Further, the result in data set [18], in data set [19], in data set [20], in [29], in data set [22] and in data set [24] was Active. For the same compound, the outcome in data set [31] and in [26] was Active. In data set [30], the inhibition entry is “Active”. In addition, in [7], the “Topoisomerase 1 inhibition (active/inactive)” value was “Active”.
In the case of `Cc1cc(O)c2c3c4c(cc(O)c13)C(C)(C)C(=O)c1c(O)c(CNCCO)c(O)c(c1-4)C2=O`, the IC50 amounted to 19.4 µM in data set [1]; 3.8 µM in [2]; 0.5 µM in data set [6]; 3.3 µM in data set [10]; 1 µM in data set [11]; 1.3 µM in data set [14]. The IC50 in data set [16] is 3.6 µM. The “Ratio IC50” value in [32] stood at 20.
On to `CCOC(=O)[C@@H]1CCCN1Cc1c(O)c2c3c(c1O)C(=O)C(C)(C)c1cc(O)c4c(C)cc(O)c(c4c1-3)C2=O`, for which the IC50 in data set [1] worked out at 1.5 µM; in data set [2], 3.5 µM; in data set [6], 0.7 µM; in data set [8], 5.9 µM; in data set [10], 1.2 µM; in [11] it was 1 µM. Further, the IC50 in data set [14] turned out to be 2.2 µM; in data set [16] it was 1.3 µM. For the same compound, the selectivity ratio in data set [3], in [4], in data set [5], in data set [9], in [12] and in data set [13] was 2 to 50 each time. The selectivity ratio in data set [15] is 2 to 50. Moreover, the “Topoisomerase 1 inhibition (active/inactive)” value in data set [7] is “Active”.

The record behind these values is ChEMBL document CHEMBL4138182, “Aminomethylation of heliomycin: Preparation and anticancer characterization of the first series of semi-synthetic derivatives” (Eur J Med Chem, 2018).
